Assay results from article PMC8228365, “Degradation Products of Tryptophan in Cell Culture Media: Contribution to Color and Toxicity” (International Journal of Molecular Sciences, 2021).
Where two headings read alike, the source gives them in different places.

Experiments:
CHOK1 GS cells = test: CellTiter-Glo cytotoxicity assay in CHOK1 GS cell line; assay type: cell-based, Chinese hamster; settings: Cricetulus griseus
Experimental: To assay the potential toxicity induced in the CHO cell culture by the Trp degradation products found in this study, a cytotoxicity assay CellTiter-Glo® Luminescent Cell Viability Assay (Cat #G7572, Promega, Madison, WI, USA) was used, following the manufacturer’s instructions. Briefly, the cells were seeded with 25,000 viable cells per cavity of a 96-well opaque white cell culture plate (Thermo Fisher, Waltham, MA, USA) in 80 µL of a pre-warmed medium. […] A DMSO control was added in the same concentration range as the tryptophan degradation compounds were diluted.

CHOK1 cells = test: CellTiter-Glo cytotoxicity assay in CHOK1 cell line; assay type: cell-based, Chinese hamster; settings: Cricetulus griseus
Experimental: (§1) To assay the potential toxicity induced in the CHO cell culture by the Trp degradation products found in this study, a cytotoxicity assay CellTiter-Glo® Luminescent Cell Viability Assay (Cat #G7572, Promega, Madison, WI, USA) was used, following the manufacturer’s instructions. Briefly, the cells were seeded with 25,000 viable cells per cavity of a 96-well opaque white cell culture plate (Thermo Fisher, Waltham, MA, USA) in 80 µL of a pre-warmed medium. Tryptophan degradation compounds were added in triplicates to the cells, ranging from 1 mM to 46 nM. A DMSO control was added in the same concentration range as the tryptophan degradation compounds were diluted. The dose response curves were fitted with a 4PL model by GraphPad Prism v.7 (GraphPad Software, San Diego, CA, USA) after luminescence readout with an EnVision 2104 Multilabel Reader (Perkin Elmer, Waltham, MA, USA).

CHOZN 6 cells = test: CellTiter-Glo cytotoxicity assay in CHOZN 6 cell line; assay type: cell-based, Chinese hamster; settings: Cricetulus griseus, read-out: [GI50] CHOZN 6
Experimental: as §1

CHOZN 10 cells = test: CellTiter-Glo cytotoxicity assay in CHOZN 10 cell line; assay type: cell-based, Chinese hamster; settings: Cricetulus griseus, read-out: [GI50] CHOZN 10
Experimental: as §1

CHO cells = test: CHO cell toxicity summarised across the four CHO cell lines; assay type: cell-based, Chinese hamster; settings: Cricetulus griseus, read-out: GI50 across all cell lines
Experimental: as §1

[1] = Color measurement (ΔE*) of standards spiked into water; assay type: physicochemical; settings: theoretical 500 µM, 1% DMSO, ΔE* > 1 deemed significant
Experimental: (§2) Compounds were dissolved in DMSO at 50 mM and then spiked into the solutions to achieve a final compound concentration of 500µM. Some of the tested compounds formed a precipitate immediately upon spiking of the DMSO solution. As the precipitates in solution can interfere with the absorption measurement, each sample was centrifuged prior to taking absorption measurements, meaning that the final concentrations were not all at 500 µM. […] In stability experiments, eight of these nine compounds (all except 46) were present in at least one condition in the degraded water samples, and four of these nine compounds (28, 31, 38, and 46) were present in the degraded feed.
(§3) Absorbance measurements were taken in the range of 380 nm to 780 nm (20 nm steps) of 100 µL of the samples in four technical replicates (Envision, Perkin Elmer, Waltham, MA, USA). From the absorbance values, the change in color was calculated using L*a*b* and ΔE* values according to DIN 5033-3 and DIN 6174 norms. The CIE 1931 standard observer (2°) and the D65 illuminant were selected.
(§4) Chemical standards were prepared as 50 mM stocks in DMSO and then spiked into the aqueous solutions (either water or feed) to achieve a theoretical compound concentration of 500 µM (1% DMSO). The solutions were centrifuged, and the absorbance measurements of these solutions was measured and converted to ΔE* values as described above. The control condition was pure DMSO (1% v/v).

[2] = Color measurement (ΔE*) of standards spiked into feed; assay type: physicochemical; settings: theoretical 500 µM, 1% DMSO, ΔE* > 1 deemed significant
Experimental: as §2, §3, §4

human cancer cell lines = system: human cancer cell lines; parameters: method as in PMID 24930832; settings: cited from earlier work
bacteria = system: bacteria; parameters: method as in PMID 24930832; settings: cited from earlier work
[3] = system: cancerous and non-cancerous human cell lines; parameters: method as in PMID 28720329, PMID 22819942, PMID 32792961; settings: wide range of human cell lines; cited from earlier work

| SMILES | GI50 (CHOK1 GS cells; CHO-K1, CHOK1 GS cell line, 1 mM to 46 nM, 4PL fit, read-out: [GI50] CHOK1 GS) [µM] | GI50 (CHOK1 cells; CHO-K1, CHOK1 cell line, 1 mM to 46 nM, 4PL fit, read-out: [GI50] CHOK1) [µM] | GI50 (CHOZN 6 cells; CHOZN 6 cell line, 1 mM to 46 nM, 4PL fit) [µM] | GI50 (CHOZN 10 cells; CHOZN 10 cell line, 1 mM to 46 nM, 4PL fit) [µM] | GI50 (CHO cells; across all four CHO cell lines) [µM] | Color change as measured by ΔE* in water [1] | Color change as measured by ΔE* in feed [2] | toxicity in human cancer cell lines (human cancer cell lines) | antibacterial activity (bacteria) | GI50 (CHOK1 GS cells; CHO-K1, read-out: [GI50] CHOK1 GS) [µM] | GI50 (CHOK1 cells; CHO-K1, read-out: [GI50] CHOK1) [µM] | GI50 (CHOZN 6 cells) [µM] | GI50 (CHOZN 10 cells) [µM] | GI50 (CHO cells; CHO) [µM] | toxicity against cancerous and non-cancerous human cell lines [3] |
| --- | --- | --- | --- | --- | --- | --- | --- | --- | --- | --- | --- | --- | --- | --- | --- |
| c1ccc2c(-c3nccc4c3[nH]c3ccccc34)c[nH]c2c1 [Compound 34, 1-(1H-Indol-3-yl)-9H-pyrido[3,4-b]indole] | 24 | 10.6 | 12.3 | 13.1 | 10 to 22 | significant color change | significant color change | some toxicity | most potent as an antibacterial agent | – | – | – | – | – | – |
| O=C1c2ccccc2-n2c1nc1ccccc1c2=O [Compound 39, Tryptanthrin] | – | – | – | – | – | significant color change | significant color change | – | – | < 0.13 | 0.2 | 1.1 | 1.05 | ≤ 1.1 | low micromolar toxicity |
